Assay results from US6875758B2, “Method of treating hyperlipidemic and hyperglycemic conditions in mammals using pregnadienols and pregnadienones” (Council of Scientific & Industrial Research, priority 1999, dated 2005).

Key:
Progestin Receptor = target: T1, Progestin Receptor (Homo sapiens, UniProt P06401); conditions: cited from earlier work; for Progestin Receptor Binding Affinity: relative binding affinity
T1 sequence (P06401 1-933): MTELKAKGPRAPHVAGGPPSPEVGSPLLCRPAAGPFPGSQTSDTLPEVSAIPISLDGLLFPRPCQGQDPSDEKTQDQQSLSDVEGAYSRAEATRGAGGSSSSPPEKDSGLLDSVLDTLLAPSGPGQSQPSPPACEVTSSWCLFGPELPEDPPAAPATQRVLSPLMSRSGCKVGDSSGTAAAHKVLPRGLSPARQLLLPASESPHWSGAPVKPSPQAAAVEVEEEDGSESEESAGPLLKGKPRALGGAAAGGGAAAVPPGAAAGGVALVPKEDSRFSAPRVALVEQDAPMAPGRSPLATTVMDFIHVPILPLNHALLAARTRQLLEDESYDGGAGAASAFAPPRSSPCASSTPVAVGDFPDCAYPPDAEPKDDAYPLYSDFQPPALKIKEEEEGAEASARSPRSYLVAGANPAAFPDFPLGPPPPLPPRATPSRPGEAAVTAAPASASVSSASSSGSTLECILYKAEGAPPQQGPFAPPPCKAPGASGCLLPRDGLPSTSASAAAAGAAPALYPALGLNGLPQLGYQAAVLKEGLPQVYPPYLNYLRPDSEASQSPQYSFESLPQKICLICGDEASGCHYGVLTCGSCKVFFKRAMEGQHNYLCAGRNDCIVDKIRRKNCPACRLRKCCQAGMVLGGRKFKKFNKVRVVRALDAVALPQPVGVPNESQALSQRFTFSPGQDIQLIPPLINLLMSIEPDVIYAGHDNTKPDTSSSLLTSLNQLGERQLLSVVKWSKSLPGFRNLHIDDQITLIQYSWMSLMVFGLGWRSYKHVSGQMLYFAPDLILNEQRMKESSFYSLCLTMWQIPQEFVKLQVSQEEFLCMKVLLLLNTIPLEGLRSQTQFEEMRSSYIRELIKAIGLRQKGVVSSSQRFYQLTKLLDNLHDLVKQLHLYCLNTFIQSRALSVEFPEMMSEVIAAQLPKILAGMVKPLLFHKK

Androgen Receptor = target: T2, Androgen Receptor (Homo sapiens, UniProt P10275); conditions: relative binding affinity; cited from earlier work
T2 sequence (P10275 1-920): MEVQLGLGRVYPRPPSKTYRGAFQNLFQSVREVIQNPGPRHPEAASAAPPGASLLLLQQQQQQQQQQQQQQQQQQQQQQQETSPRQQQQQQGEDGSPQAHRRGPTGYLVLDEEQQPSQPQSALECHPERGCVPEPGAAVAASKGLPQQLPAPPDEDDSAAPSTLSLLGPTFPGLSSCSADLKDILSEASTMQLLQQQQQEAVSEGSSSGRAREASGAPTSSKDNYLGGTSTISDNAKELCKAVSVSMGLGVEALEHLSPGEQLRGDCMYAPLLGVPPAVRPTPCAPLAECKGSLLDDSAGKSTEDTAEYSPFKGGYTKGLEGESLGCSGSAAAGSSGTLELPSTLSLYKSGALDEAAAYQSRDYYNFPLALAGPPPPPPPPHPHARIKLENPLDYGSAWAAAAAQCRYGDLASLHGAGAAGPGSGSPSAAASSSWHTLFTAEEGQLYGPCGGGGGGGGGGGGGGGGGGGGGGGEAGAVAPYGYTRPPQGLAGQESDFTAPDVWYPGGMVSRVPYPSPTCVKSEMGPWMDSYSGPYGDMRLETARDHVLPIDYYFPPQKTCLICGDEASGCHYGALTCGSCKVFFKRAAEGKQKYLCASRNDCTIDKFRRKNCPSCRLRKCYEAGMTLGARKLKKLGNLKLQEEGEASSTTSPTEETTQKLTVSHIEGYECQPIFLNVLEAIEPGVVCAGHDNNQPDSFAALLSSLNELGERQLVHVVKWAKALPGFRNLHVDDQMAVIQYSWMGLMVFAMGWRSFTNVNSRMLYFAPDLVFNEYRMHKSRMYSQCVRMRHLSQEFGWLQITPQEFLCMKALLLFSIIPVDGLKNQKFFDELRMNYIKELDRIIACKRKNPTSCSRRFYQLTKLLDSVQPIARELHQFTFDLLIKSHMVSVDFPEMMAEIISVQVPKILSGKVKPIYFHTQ

[1] = tested on: endometrial proliferation; test: Clauberg assay, endometrial proliferation on McPhail scale; format: in vivo; conditions: 50 mg/kg
Experimental: The progestational activity was also tested in vivo by Clauberg assay method. The degree of endometrial proliferation was estimated on the McPhail scale where 3′ or 4′ was considered as a full progestational effect.

SMILES	Progestin Receptor Binding Affinity (Progestin Receptor)	Androgen Receptor Binding Affinity (Androgen Receptor)	Selectivity Index (A/P ratio) (Progestin Receptor; androgen vs progestin receptor)	progestational activity [1]
C#C[C@]1(O)CC[C@H]2[C@@H]3CCC4=CC(=O)CC[C@@H]4[C@H]3C(=C)C[C@@]21CC [3-Keto-desogestrel]	8.6			
C#C[C@]1(O)C=C[C@H]2[C@@H]3CCC4=CC(=O)CC[C@@H]4[C@H]3CC[C@@]21CC [Gestodene]	9.21	0.154	28	
CC(=O)[C@H]1CC[C@H]2[C@@H]3CCC4=CC(=O)CC[C@]4(C)[C@H]3CC[C@]12C [Progesterone, reference compound]				marked progestational activity
